# Patent publication US10858316B2, “Small molecule inhibitors of the MCL-1 oncoprotein and uses thereof” (University of Maryland, Baltimore, priority 2015, dated 2020)
# Molecular target: Mcl-1 (Homo sapiens (Human), UniProt Q07820)
# Experiment: Fluorescence polarization competition assay (FPCA), Mcl-1 / FITC-Bak BH3 peptide
# Format: binding
# Conditions: FPC assay; read-out: Mcl-1 Ki
# Source text: The tagged protein was initially purified from the crude cell lysate by immobilized metal affinity chromatography (IMAC) chromatography (GE Healthcare Life Sciences), and after dialysis to remove the imidazole the affinity tag was cleaved using PreScission Protease (GE Healthcare Life Sciences). A Sephacryl S-200 size exclusion column was used as a final purification step before the protein was concentrated with a 10,000 MWCO centifugal filter concentrator (Millipore).
# Fluorescence polarization experiments were conducted using a BMG PHERAstar FS multimode microplate reader equipped with two PMTs for simultaneous measurements of the perpendicular and parallel fluorescence emission. The assays were performed in black polypropylene 384-well microplate (Costar) with a final volume of 20 microliter. […] Regression analysis was carried out using Origin (OriginLab, Northampton, Mass.) to fit the data to the Hill equation (1) to determine the initial binding affinity (KD) and the IC50 in the FPCA. For the fluorescence polarization competition titrations, an equation derived by Nikolovska-Coleska et al. was used to calculate the Ki from the IC50 data.
# The target molecules were assayed for their abilities to disrupt the Mcl-1-Bak-BH3 PPI in a fluorescence polarization competition (FPC) assay with Mcl-1 and FITC-labeled Bak-BH3 peptide. Further details on the FPC assay can be found in the Supporting Information.
# Sequence of Mcl-1 (Q07820 172-327): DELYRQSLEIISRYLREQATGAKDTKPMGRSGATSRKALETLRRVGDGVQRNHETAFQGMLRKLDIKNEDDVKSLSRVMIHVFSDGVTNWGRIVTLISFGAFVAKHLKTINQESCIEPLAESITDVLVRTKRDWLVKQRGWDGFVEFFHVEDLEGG
row,Structure (SMILES),Ki [µM]
1,O=C(O)C1Cc2ccccc2N(S(=O)(=O)c2ccc(-c3ccccc3)cc2)C1 (racemic) [±-8d],> 500

# Same assay, conditions: FPCA
row,Structure (SMILES),Binding affinity to Mcl-1 in vitro
1,COC(=O)C1Cc2ccccc2N(S(=O)(=O)c2ccc(Oc3cc(C)c(Cl)c(C)c3)cc2)C1 (racemic) [±-9],no appreciable affinity

# Same assay, conditions: FPCA with FITC-Bak; Ki from IC50 by Nikolovska-Coleska equation; read-out: Mcl-1 Ki
row,Structure (SMILES),Ki [µM]
1,"NS(=O)(=O)c1cc(C(=O)O)c(O)c2ccccc12 [Compound 3b, 1-Hydroxy-4-sulfamoyl-2-naphthoic Acid]",99
2,CC(=O)OCOC(=O)c1ccc(N(CC(C)C)S(=O)(=O)c2ccc(Oc3ccccc3)cc2)cc1O [LC-4-141 22],> 500
3,CC(C)CN(c1ccc(C(=O)O)cc1)S(=O)(=O)c1ccccc1 [LC-3-029 8a],> 500
4,"O=C(O)c1ccc2c(c1)CCCN2S(=O)(=O)c1ccc2ccccc2c1 [LC-3-006, 1-(naphthalen-2-ylsulfonyl)-1,2,3,4-tetrahydroquinoline-6-carboxylic acid]",22
5,COC(=O)C1Cc2ccccc2N(S(=O)(=O)c2ccc(Oc3cc(C)c(Cl)c(C)c3)cc2)C1 (racemic) [±-9],> 500
6,"O=C(O)c1cc(S(=O)(=O)Nc2ccccc2Br)c2ccccc2c1O [Compound 3m, 4-(N-(2-bromophenyl)sulfamoyl)-1-hydroxy-2-naphthoic Acid]",6.84 ± 2.23
7,CC(C)CN(c1ccc(-c2nnn[nH]2)cc1)S(=O)(=O)c1ccc(Oc2ccccc2)cc1 [LC-5-068 24],3.3 ± 0.26
8,"O=C(O)c1ccc2c(c1)CCCN2S(=O)(=O)c1ccc(Br)cc1 [LC-3-004, 1-((4-bromophenyl)sulfonyl)-1,2,3,4-tetrahydroquinoline-6-carboxylic acid]",203
9,CC(C)CN(c1cccc(C(=O)O)c1)S(=O)(=O)c1ccccc1 [4jc177-1 18aa],> 500
10,CC(C)CN(c1ccc(C(=O)O)c(O)c1)S(=O)(=O)c1ccc(Br)cc1 [LC-5-012 13ae],17 ± 1.5
11,Cc1ccc(S(=O)(=O)N(CC(C)C)c2cccc(C(=O)O)c2)cc1 [4jc177-2 18ae],155 ± 14.7
12,CC(C)CN(c1ccc(C(=O)O)c(O)c1)S(=O)(=O)c1ccc(Oc2ccc(Cl)cc2Cl)cc1 [LC-4-111 13aj],2.74 ± 0.258
13,"O=C(O)c1ccc2c(c1)CCCN2S(=O)(=O)c1ccc(F)cc1 [LC-3-010, 1-((4-fluorophenyl)sulfonyl)-1,2,3,4-tetrahydroquinoline-6-carboxylic acid]",> 1000
14,O=C(O)c1ccc(N(Cc2ccccc2)S(=O)(=O)c2ccc3ccccc3c2)cc1O [LC-4-113 13ca],11.4 ± 1.57
15,"CN(C)S(=O)(=O)c1cc(C(=O)O)c(O)c2ccccc12 [Compound 3h, 4-(N,N-Dimethylsulfamoyl)-1-hydroxy-2-naphthoic Acid]",25.7 ± 4.86
16,"O=C(O)c1ccc2c(c1)CCCN2S(=O)(=O)c1ccc(-c2ccccc2)cc1 [LC-3-002, 1-([1,1′-biphenyl]-4-ylsulfonyl)-1,2,3,4-tetrahydroquinoline-6-carboxylic acid]",14
17,COc1cc(N(CC(C)C)S(=O)(=O)c2ccc(Oc3ccccc3)cc2)ccc1C(=O)O [LC-5-106 19],107 ± 31.1
18,"O=C(O)c1cc(S(=O)(=O)Nc2ccc(-c3ccccc3)cc2)c2ccccc2c1O [Compound 3t, 4-(N-([1,1′-Biphenyl]-4-yl)sulfamoyl)-1-hydroxy-2-naphthoic Acid]",1.54 ± 0.46

row,Structure (SMILES),Ki [µM]
1,"O=C(O)c1cc(S(=O)(=O)Nc2ccccc2)c2ccccc2c1O [Compound 3l, 1-Hydroxy-4-(N-phenylsulfamoyl)-2-naphthoic acid]",106 ± 26
2,"O=C(O)c1cc(S(=O)(=O)NCc2ccccc2)c2ccccc2c1O [Compound 3c, 4-(N-Benzylsulfamoyl)-1-hydroxy-2-naphthoic Acid]",56.3 ± 2.1
3,Cc1cc(Oc2ccc(S(=O)(=O)N(CC(C)C)c3ccc(C(=O)O)cc3)cc2)cc(C)c1Cl [LC-3-035 8e],2.06 ± 0.118
4,O=C(O)c1ccc(N(C2CCCC2)S(=O)(=O)c2ccc3ccccc3c2)cc1O [LC-4-083 13ba],24.7 ± 9.45
5,"COc1c(C(=O)O)cc(S(=O)(=O)N(CC(C)C)c2ccc(Br)cc2)c2ccccc12 [Compound 3cd, 4-(N-(4-Bromophenyl)-N-isobutylsulfamoyl)-1-methoxy-2-naphthoic Acid]",23.4 ± 2.6
6,O=C(O)c1ccc(N(C2CCCC2)S(=O)(=O)c2ccc(-c3ccccc3)cc2)cc1O [LC-4-082 13bb],5.24 ± 0.694
7,CC(C)CN(c1ccc(C(=O)O)cc1)S(=O)(=O)c1ccc2ccccc2c1 [LC-3-031 8b],> 500
8,"O=C(O)c1cc(S(=O)(=O)N2CCCCC2)c2ccccc2c1O [Compound 3i, 1-Hydroxy-4-(piperidin-1-ylsulfonyl)-2-naphthoic Acid]",2.95 ± 0.43
9,O=C(O)C1Cc2ccccc2N(S(=O)(=O)c2ccc(-c3ccccc3)cc2)C1 (racemic) [±-8d],> 500
10,"O=C(O)c1cc(S(=O)(=O)N2CCN(Cc3ccccc3)CC2)c2ccccc2c1O [Compound 3k, 4-((4-Benzylpiperazin-1-yl)sulfonyl)-1-hydroxy-2-naphthoic Acid]",3.41 ± 0.37
11,"Cc1cc(Oc2ccc(S(=O)(=O)N3CCCc4cc(C(=O)O)ccc43)cc2)cc(C)c1Cl [LC-3-012, 1-((4-(4-chloro-3,5-dimethylphenoxy)phenyl)sulfonyl)-1,2,3,4-tetrahydroquinoline-6-carboxylic acid]",0.332
12,"CC(C)Oc1ccc(NS(=O)(=O)c2cc(C(=O)O)c(O)c3ccccc23)cc1 [Compound 3aa, 1-Hydroxy-4-(N-(4-isopropoxyphenyl)sulfamoyl)-2-naphthoic Acid]",54 ± 4.6
13,"COC(=O)c1cc(S(=O)(=O)N(CC(C)C)c2ccc(Br)cc2)c2ccccc2c1O [Compound 3cb, Methyl 4-(N-(4-bromophenyl)-N-isobutylsulfamoyl)-1-hydroxy-2-naphthoate]",> 500
14,CC(C)CN(c1cccc(C(=O)O)c1)S(=O)(=O)c1ccc(F)cc1 [4jc177-6 18ad],> 500
15,O=C(O)C1Cc2ccccc2N(S(=O)(=O)c2ccc(F)cc2)C1 (racemic) [±-8c],176 ± 115
16,CC(C)CN(c1ccc(C(=O)O)cc1)S(=O)(=O)c1ccc(F)cc1 [LC-3-025 8d],> 500
17,"Cc1ccc(NS(=O)(=O)c2cc(C(=O)O)c(O)c3ccccc23)cc1 [Compound 3x, 1-Hydroxy-4-(N-(p-tolyl)sulfamoyl)-2-naphthoic Acid]",34.3 ± 1

# Same assay, conditions: fluorescence polarization competition assay; read-out: Ki (μM) Mcl-1
row,Structure (SMILES),Ki [µM]
1,"Cc1cc(Oc2ccc(S(=O)(=O)N(CC(C)C)c3ccc(C(=O)O)cc3)cc2)cc(C)c1Cl [LC-3-035, 4-(4-(4-chloro-3,5-dimethylphenoxy)-N-isobutylphenylsulfonamido)benzoic acid]",0.261 ± 0.558
2,"CC(C)CN(c1ccc(C(=O)O)c(O)c1)S(=O)(=O)c1ccc(-c2ccccc2)cc1 [Compound 4jc117-4, 2-hydroxy-4-(N-isobutyl-[1,1′-biphenyl]-4-ylsulfonamido)benzoic acid]",7.87 ± 0.263

# Same assay, conditions: read-out: Mcl-1 Ki
row,Structure (SMILES),Ki [µM]
1,"O=C(O)C1Cc2ccccc2N(S(=O)(=O)c2ccc(Br)cc2)C1 (racemic) [SF-5-135, (±)-1-((4-bromophenyl)sulfonyl)-1,2,3,4-tetrahydroquinoline-3-carboxylic acid]",> 1000
2,"O=C(O)C1Cc2ccccc2N(S(=O)(=O)c2ccc3ccccc3c2)C1 (racemic) [SF-5-134, (±)-1-(naphthalen-2-ylsulfonyl)-1,2,3,4-tetrahydroquinoline-3-carboxylic acid]",30
3,"Cc1ccc(S(=O)(=O)N(CC(C)C)c2ccc(C(=O)O)c(O)c2)cc1 [Compound 4jc117-2, 2-hydroxy-4-(N-isobutyl-4-methylphenylsulfonamido)benzoic acid]",302 ± 31.8
4,"O=C(O)C1Cc2ccccc2N(S(=O)(=O)c2ccc(F)cc2)C1 (racemic) [SF-5-136, (±)-1-((4-fluorophenyl)sulfonyl)-1,2,3,4-tetrahydroquinoline-3-carboxylic acid]",> 1000

# Same assay, conditions: ΔG=−RTlnKi from experimental Ki
row,Structure (SMILES),Mcl-1 Exp ΔG [kcal/mol]
1,O=C(O)c1cc(S(=O)(=O)Nc2cccc(Br)c2)c2ccccc2c1O [3n; TA-1-020],-7.16
2,O=C(O)c1cc(S(=O)(=O)Nc2cccc(-c3ccccc3)c2)c2ccccc2c1O [3s; LC-3-192],-7.81
3,N#Cc1ccc(NS(=O)(=O)c2cc(C(=O)O)c(O)c3ccccc23)cc1 [3ab; TA-1-018],-6.35
4,N#Cc1cccc(NS(=O)(=O)c2cc(C(=O)O)c(O)c3ccccc23)c1 [3ad; 5JC75-2],-6.23
5,O=C(O)c1cc(S(=O)(=O)Nc2ccccc2-c2ccccc2)c2ccccc2c1O [3r; LC-4-002],-6.91
6,O=C(O)c1cc(S(=O)(=O)NCc2ccccc2)c2ccccc2c1O [3c; SF-5-311],-5.79
7,CC(C)Oc1ccc(NS(=O)(=O)c2cc(C(=O)O)c(O)c3ccccc23)cc1 [3aa; SF-5-293],-5.82
8,CC(C)c1ccc(NS(=O)(=O)c2cc(C(=O)O)c(O)c3ccccc23)cc1 [3y; 5JC74-2],-7.38
9,CN(C)S(=O)(=O)c1cc(C(=O)O)c(O)c2ccccc12 [3h; SF-5-295],-6.26
10,Cc1ccc(NS(=O)(=O)c2cc(C(=O)O)c(O)c3ccccc23)cc1 [3x; 5JC74-1],-6.09
11,"COc1c(C(=O)O)cc(S(=O)(=O)N(CC(C)C)c2ccc(Br)cc2)c2ccccc12 [Compound 3cd, 4-(N-(4-Bromophenyl)-N-isobutylsulfamoyl)-1-methoxy-2-naphthoic Acid]",-6.31
12,O=C(O)c1cc(S(=O)(=O)Nc2ccc(Oc3ccc(Cl)cc3)cc2)c2ccccc2c1O [3bh; SF-5-304],-9.22
13,O=C(O)c1cc(S(=O)(=O)Nc2ccc(-c3ccccc3)cc2)c2ccccc2c1O [3t; LC-3-192],-7.93
14,"COC(=O)c1cc(S(=O)(=O)N(CC(C)C)c2ccc(Br)cc2)c2ccccc2c1O [Compound 3cb, Methyl 4-(N-(4-bromophenyl)-N-isobutylsulfamoyl)-1-hydroxy-2-naphthoate]",>-4.50
15,O=C(O)c1cc(S(=O)(=O)Nc2ccccc2Br)c2ccccc2c1O [3m; TA-1-019],-7.04
